Test results taken from patent publication US10238670B2, “9-aminomethyl minocycline compounds and methods of use thereof in urinary tract infection (UTI) treatment” (Paratek Pharmaceuticals, Inc., priority 2016, dated 2019).
≈ marks a conversion by molar mass, not a printed value. Read-outs that look alike come from different tables or passages of the source.

Tests used:
Test in all cases: In vitro MIC, 2010 surveillance isolates
E. faecalis VNS = format: cell-based; details: for % R (resistance): CLSI breakpoints
MRSA = format: cell-based
E. faecium VNS = format: cell-based; details: for % R (resistance): CLSI breakpoints
E. faecalis VS = format: cell-based; details: for % R (resistance): CLSI breakpoints
E. coli ESBL+ = format: cell-based, Escherichia coli
MSSA = format: cell-based
A. baumanii = format: cell-based
E. coli ESBL− = format: cell-based, Escherichia coli
Enterobacter spp = format: cell-based
MR CoNS = format: cell-based, Coagulase-Negative Staphylococcus
K. oxytoca = format: cell-based
E. faecium VS = format: cell-based; details: for % R (resistance): CLSI breakpoints
MS CoNS = format: cell-based, Coagulase-Negative Staphylococcus
E. cloacae CeftazR = format: cell-based
K. pneumoniae ESBL+ = format: cell-based, Klebsiella pneumoniae
Acinetobacter spp = format: cell-based
E. cloacae CeftazS = format: cell-based
K. pneumoniae ESBL− = format: cell-based, Klebsiella pneumoniae

range of MICs (N <10, shown instead of MIC90) (E. faecalis VNS; Asia/Pac, N=1): >4
range of MICs (N <10, shown instead of MIC90) (E. faecalis VNS; L. Amer, N=7): > 4
MIC90 (E. faecalis VNS; N America, N=38): > 4 µg/mL
MIC90 (MRSA; Asia/Pac, N=428): > 4 µg/mL
MIC90 (MRSA; Europe, N=750): > 4 µg/mL
MIC90 (MRSA; L. Amer, N=506): > 4 µg/mL
MIC90 (MRSA; N America, N=2508): > 4 µg/mL
MIC90 (E. faecium VNS; Asia/Pac, N=24): > 4 µg/mL
MIC90 (E. faecium VNS; Europe, N=71): > 4 µg/mL
MIC90 (E. faecium VNS; L. Amer, N=41): > 4 µg/mL
MIC90 (E. faecium VNS; N America, N=478): > 4 µg/mL
MIC90 (E. faecalis VS; Asia/Pac, N=214): > 4 µg/mL
MIC90 (E. faecalis VS; Europe, N=669): > 4 µg/mL
MIC90 (E. faecalis VS; L. Amer, N=290): > 4 µg/mL
MIC90 (E. faecalis VS; N America, N=863): > 4 µg/mL
MIC90 (E. coli ESBL+; Asia/Pac, N=219): > 4 µg/mL
MIC90 (E. coli ESBL+; Escherichia coli, ESBL-producing E. coli, read-out: MIC90): > 4 µg/mL
MIC90 (E. coli ESBL+; Europe, N=274): > 4 µg/mL
MIC90 (E. coli ESBL+; L. Amer, N=168): > 4 µg/mL
MIC90 (E. coli ESBL+; N America, N=134): > 4 µg/mL
MIC90 (MSSA; Asia/Pac, N=641): ≤ 0.5 µg/mL
MIC90 (MSSA; Europe, N=2109): ≤ 0.5 µg/mL
MIC90 (MSSA; L. Amer, N=590): ≤ 0.5 µg/mL
MIC90 (MSSA; N America, N=2373): 4 µg/mL (≈ 11.1 µM)
MIC90 (A. baumanii; Asia/Pac, N=275): > 4 µg/mL
MIC90 (A. baumanii; Europe, N=145): > 4 µg/mL
MIC90 (A. baumanii; L. Amer, N=275): > 4 µg/mL
MIC90 (A. baumanii; N America, N=154): > 4 µg/mL
MIC90 (E. coli ESBL−; Asia/Pac, N=282): > 4 µg/mL
MIC90 (E. coli ESBL−; Europe, N=1533): > 4 µg/mL
MIC90 (E. coli ESBL−; L. Amer, N=389): > 4 µg/mL
MIC90 (E. coli ESBL−; N America, N=1172): > 4 µg/mL
MIC90 (Enterobacter spp; Asia/Pac, N=52): ≤ 0.5 µg/mL
MIC90 (Enterobacter spp; Europe, N=82): 1 µg/mL (≈ 2.77 µM)
MIC90 (Enterobacter spp; L. Amer, N=42): 4 µg/mL (≈ 11.1 µM)
MIC90 (Enterobacter spp; N America, N=101): ≤ 0.5 µg/mL
MIC90 (MR CoNS; Asia/Pac, N=77): > 4 µg/mL
MIC90 (MR CoNS; Europe, N=510): > 4 µg/mL
MIC90 (MR CoNS; L. Amer, N=301): > 4 µg/mL
MIC90 (MR CoNS; N America, N=461): > 4 µg/mL
MIC90 (K. oxytoca; Asia/Pac, N=17): ≤ 0.5 µg/mL
MIC90 (K. oxytoca; Europe, N=158): ≤ 0.5 µg/mL
MIC90 (K. oxytoca; L. Amer, N=25): > 4 µg/mL
MIC90 (K. oxytoca; N America, N=177): ≤ 0.5 µg/mL
MIC90 (E. faecium VS; Asia/Pac, N=106): > 4 µg/mL
MIC90 (E. faecium VS; Europe, N=303): > 4 µg/mL
MIC90 (E. faecium VS; L. Amer, N=51): > 4 µg/mL
MIC90 (E. faecium VS; N America, N=115): > 4 µg/mL
MIC90 (MS CoNS; Asia/Pac, N=18): > 4 µg/mL
MIC90 (MS CoNS; Europe, N=185): 2 µg/mL (≈ 5.53 µM)
MIC90 (MS CoNS; L. Amer, N=67): ≤ 0.5 µg/mL
MIC90 (MS CoNS; N America, N=191): > 4 µg/mL
MIC90 (E. cloacae CeftazR; Asia/Pac, N=63): > 4 µg/mL
MIC90 (E. cloacae CeftazR; Europe, N=72): > 4 µg/mL
MIC90 (E. cloacae CeftazR; L. Amer, N=42): > 4 µg/mL
MIC90 (E. cloacae CeftazR; N America, N=77): > 4 µg/mL
MIC90 (K. pneumoniae ESBL+; Asia/Pac, N=124): > 4 µg/mL
MIC90 (K. pneumoniae ESBL+; Europe, N=151): > 4 µg/mL
MIC90 (K. pneumoniae ESBL+; L. Amer, N=209): > 4 µg/mL
MIC90 (K. pneumoniae ESBL+; N America, N=108): > 4 µg/mL
MIC90 (Acinetobacter spp; Europe, N=43): > 4 µg/mL
MIC90 (Acinetobacter spp; N America, N=42): > 4 µg/mL
MIC90 (E. cloacae CeftazS; Asia/Pac, N=100): ≤ 0.5 µg/mL
MIC90 (E. cloacae CeftazS; Europe, N=183): ≤ 0.5 µg/mL
MIC90 (E. cloacae CeftazS; L. Amer, N=57): > 4 µg/mL
MIC90 (E. cloacae CeftazS; N America, N=210): ≤ 0.5 µg/mL
MIC90 (K. pneumoniae ESBL−; Asia/Pac, N=189): 1 µg/mL (≈ 2.77 µM)
MIC90 (K. pneumoniae ESBL−; Europe, N=361): ≤ 0.5 µg/mL
MIC90 (K. pneumoniae ESBL−; L. Amer, N=160): 1 µg/mL (≈ 2.77 µM)
MIC90 (K. pneumoniae ESBL−; N America, N=671): ≤ 0.5 µg/mL
Structure (SMILES): C[C@H]1COc2c(N3CCN(C)CC3)c(F)cc3c(=O)c(C(=O)O)cn1c23 [Levofloxacin]
% R (resistance) (E. faecalis VNS; L. Amer): 100%
% R (resistance) (E. faecalis VNS; N America): 97.4%
% R (resistance) (MRSA; Asia/Pac, Eucast breakpoints): 70.6%
% R (resistance) (MRSA; Europe, Eucast breakpoints): 86.4%
% R (resistance) (MRSA; L. Amer, CLSI breakpoints): 84%
% R (resistance) (MRSA; N America, CLSI breakpoints): 67.3%
% R (resistance) (E. faecium VNS; L. Amer): 100%
% R (resistance) (E. faecium VNS; N America): 99.6%
% R (resistance) (E. faecalis VS; L. Amer): 30%
% R (resistance) (E. faecalis VS; N America): 29.3%
% R (resistance) (E. coli ESBL+; Asia/Pac, Eucast breakpoints): 78.1%
resistance rates for ESBL-producing clinical isolates (E. coli ESBL+; E. coli): 76.5%
% R (resistance) (E. coli ESBL+; Europe, Eucast breakpoints): 79.2%
% R (resistance) (E. coli ESBL+; L. Amer, CLSI breakpoints): 81%
% R (resistance) (E. coli ESBL+; N America, CLSI breakpoints): 74.6%
% R (resistance) (MSSA; Asia/Pac, Eucast breakpoints): 5.9%
% R (resistance) (MSSA; Europe, Eucast breakpoints): 5.5%
% R (resistance) (MSSA; L. Amer, CLSI breakpoints): 2.2%
% R (resistance) (MSSA; N America, CLSI breakpoints): 10.8%
% R (resistance) (A. baumanii; Asia/Pac, Eucast breakpoints): 79.3%
% R (resistance) (A. baumanii; Europe, Eucast breakpoints): 74.5%
% R (resistance) (A. baumanii; L. Amer, CLSI breakpoints): 86.9%
% R (resistance) (A. baumanii; N America, CLSI breakpoints): 68.8%
% R (resistance) (E. coli ESBL−; Asia/Pac, Eucast breakpoints): 17%
% R (resistance) (E. coli ESBL−; Europe, Eucast breakpoints): 19.3%
% R (resistance) (E. coli ESBL−; L. Amer, CLSI breakpoints): 22.9%
% R (resistance) (E. coli ESBL−; N America, CLSI breakpoints): 21.9%
% R (resistance) (Enterobacter spp; Asia/Pac, Eucast breakpoints): 1.9%
% R (resistance) (Enterobacter spp; Europe, Eucast breakpoints): 73%
% R (resistance) (Enterobacter spp; L. Amer, CLSI breakpoints): 9.5%
% R (resistance) (Enterobacter spp; N America, CLSI breakpoints): 1%
% R (resistance) (MR CoNS; Asia/Pac, Eucast breakpoints): 55.8%
% R (resistance) (MR CoNS; Europe, Eucast breakpoints): 64.9%
% R (resistance) (MR CoNS; L. Amer, CLSI breakpoints): 57.8%
% R (resistance) (MR CoNS; N America, CLSI breakpoints): 64.9%
% R (resistance) (K. oxytoca; Asia/Pac, Eucast breakpoints): 0%
% R (resistance) (K. oxytoca; Europe, Eucast breakpoints): 3.2%
% R (resistance) (K. oxytoca; L. Amer, CLSI breakpoints): 16%
% R (resistance) (K. oxytoca; N America, CLSI breakpoints): 1.7%
% R (resistance) (E. faecium VS; L. Amer): 78.4%
% R (resistance) (E. faecium VS; N America): 68.7%
% R (resistance) (MS CoNS; Asia/Pac, Eucast breakpoints): 16.7%
% R (resistance) (MS CoNS; Europe, Eucast breakpoints): 9.7%
% R (resistance) (MS CoNS; L. Amer, CLSI breakpoints): 6%
% R (resistance) (MS CoNS; N America, CLSI breakpoints): 23.6%
% R (resistance) (E. cloacae CeftazR; Asia/Pac, Eucast breakpoints): 20.6%
% R (resistance) (E. cloacae CeftazR; Europe, Eucast breakpoints): 22.2%
% R (resistance) (E. cloacae CeftazR; L. Amer, CLSI breakpoints): 31%
% R (resistance) (E. cloacae CeftazR; N America, CLSI breakpoints): 19.5%
% R (resistance) (K. pneumoniae ESBL+; Asia/Pac, Eucast breakpoints): 61.3%
% R (resistance) (K. pneumoniae ESBL+; Europe, Eucast breakpoints): 66.9%
% R (resistance) (K. pneumoniae ESBL+; L. Amer, CLSI breakpoints): 67.9%
% R (resistance) (K. pneumoniae ESBL+; N America, CLSI breakpoints): 75%
% R (resistance) (Acinetobacter spp; Asia/Pac, Eucast breakpoints): 11.1%
% R (resistance) (Acinetobacter spp; Europe, Eucast breakpoints): 41.9%
% R (resistance) (Acinetobacter spp; L. Amer, CLSI breakpoints): 33.3%
% R (resistance) (Acinetobacter spp; N America, CLSI breakpoints): 14.3%
% R (resistance) (E. cloacae CeftazS; Asia/Pac, Eucast breakpoints): 4%
% R (resistance) (E. cloacae CeftazS; Europe, Eucast breakpoints): 2.2%
% R (resistance) (E. cloacae CeftazS; L. Amer, CLSI breakpoints): 12.3%
% R (resistance) (E. cloacae CeftazS; N America, CLSI breakpoints): 2.9%
% R (resistance) (K. pneumoniae ESBL−; Asia/Pac, Eucast breakpoints): 5.3%
% R (resistance) (K. pneumoniae ESBL−; Europe, Eucast breakpoints): 4.2%
% R (resistance) (K. pneumoniae ESBL−; L. Amer, CLSI breakpoints): 7.5%
% R (resistance) (K. pneumoniae ESBL−; N America, CLSI breakpoints): 1.9%
